In patent publication US20150025045A1, “CBP AND p300-MEDIATED TRANSCRIPTION MODULATORS AND RELATED METHODS” (THE OHIO STATE UNIVERSITY, priority 2011, published 2015):
Entries after “also recorded” stand apart in the source; their conditions may differ.

Assays:
Jun = assay: Transcriptional inhibition assay, Ga14 DBD-Jun TAD luciferase reporter in HeLa cells; format: cell-based; details: in words
Protocol: Cells were transfected with Firefly (500 ng/mL) and Renilla luciferase (10 ng/mL) plasmids in addition to plasmids encoding the DBD of Ga14 fused to the minimal activation domains of either MLL (250 ng/mL), Jun (100 ng/mL), or ESX (500 ng/mL, 0.1 mL of total transfection solution). Four hours post-transfection cells were treated with increasing concentration of 1b (0→50 μM) as a solution in DMSO such that the final DMSO concentration was 1% (v/v). Percent inhibition is the ratio of fold activation of Jun at each concentration of compound and the fold activation of Jun in a DMSO-treated control. Each bar represents at least three independent experiments with the indicated error (SDOM). For each concentration level of 1b shown in FIG. 5a, the first data column from the left is Jun, the middle column is MLL, and the third column is ESX. (b) MCF-7 cells were treated with 40 μM 1b (as a solution in DMSO such that the final concentration of DMSO was 1% v/v) for 24 h, at which time the cells were lysed and the lysates separated by SDS-PAGE. Western blots were performed using commercial antibodies against GAPDH, Jun, and cyclin D1.
(b) Analogs of 1b tested for MLL and Jun inhibition. (c) Inhibition of Jun with isoxazolidine analogs Inhibition assays were carried out as described in FIG. 5a (SEQ ID NOs:1-4). For each concentration level shown in FIG. 6c, the compound data is shown (from the left) in the following order: 3, 4, 5, 6, 7, 8 and 9.
HeLa cells (10,000 per well) were transfected with a Firefly luciferase reporter (500 ng/mL), and Renilla (10 ng/mL) control plasmid in addition to a plasmid encoding for either the MLL (250 ng/mL) or Jun (100 ng/mL) activation domain fused to the DNA-binding domain of Ga14 in 0.1 mL Optimem. The Optimem was removed and 0.1 mL of DMEM supplemented with 10% FBS and compound was added four hours post-transfection and the luminescence was assessed after 24 h as described above.

KIX domain of CBP = target: T1, KIX domain of CBP (Mus musculus, UniProt P45481); assay: 1H-15N-HSQC binding analysis; details: 200 μM 15N-His6KIX, 5 eq. compound
T1 construct: the KIX domain, an 87-residue module whose solution structure has been elucidated; made in house
T1 sequence (P45481 586-665 limits assumed): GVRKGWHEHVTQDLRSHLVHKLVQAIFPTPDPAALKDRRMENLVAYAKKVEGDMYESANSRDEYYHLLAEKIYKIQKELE
Protocol: The amide chemical shifts that change upon addition of 4 were quantitated were quantified using the equation: Δδ=[Δδ(^1H)^2+0.1Δδ(^15N)^2]^1/2, FIG. 7B bottom.
Uniformly labeled His6KIX protein was expressed and purified as previously described and stored as a lyophilized powder (see, e.g., Buhrlage, 2009). A 200 μM solution of His6KIX was prepared by dissolving the lyophilized protein, in a 9:1 H2O:D2O 10 mM PBS buffer containing 150 mM NaCl at pH 7.2. ^1H-^15N HSQC experiments were recorded at 27° C. on an Avance Bruker 600 MHz NMR spectrometer equipped with a 5 mm cryogenic probe. An HSQC was collected in the absence of isoxazolidine 4 and compared with data recorded in the presence of 5 eq. (1 mM) of 4. Data was processed using NMRPIPE. Chemical shift assignments were based on previously reported data′ and chemical shift analyses with Sparky software were quantified (Δδ=[Δδ(^1H)^2+0.1Δδ(^15N)^2]^1/2).

MCF-7 cells = assay: Cell viability assay (WST-1); format: cell-based; details: at concentrations ≧50 μM (so in the source)
Protocol: Viability data was acquired after 24 h using a cell-permeable metabolic dye, WST-1 (Roche). Viability data was normalized based on cell viability in the presence of 1% DMSO.
MCF-7 cells (American Tissue Culture Collection) were seeded at 5000 cells per well in a 96 well plate in RPMI media supplemented with 10% fetal bovine serum and allowed to adhere (37° C. and 5% CO2) overnight. Cells were incubated with 1b in DMSO or DMSO alone to a final DMSO concentration of 1% (v/v) for 24 hrs. WST-1 (Roche) was subsequently added to wells and the 96 well plate was incubated for 1 h at 37° C. Absorbance at 440 nm was read on a Tecan GENios Pro plate reader following 1 minute of orbital shaking. Data was corrected for wells containing media+WST-1 without cells. Each value is the average of at least three wells with the indicated error (SDOM).

KIX binding by 1H-15N-HSQC (KIX domain of CBP) | SMILES | effect on Jun-driven transcription (Jun) | toxicity (MCF-7 cells)
 | CC(C)CN1O[C@@H](CN=[N+]=[N-])C[C@@]1(CCO)CC(C)C (racemic) [isoxazolidine 8] | little activity | 
 | CC(C)C[C@]1(CCO)C[C@H](CN=[N+]=[N-])ON1Cc1ccc(F)cc1 (racemic) [isoxazolidine 6] | dose-dependent manner; also recorded: enhanced potency | 
 | CCCN1O[C@@H](CN=[N+]=[N-])C[C@@]1(CCO)CC(C)C (racemic) [isoxazolidine 9] | little activity | 
 | CC(C)CCN1O[C@@H](CN=[N+]=[N-])C[C@@]1(CCO)CC(C)C (racemic) [isoxazolidine 7] | dose-dependent manner; also recorded: enhanced potency | 
did not negatively impact KLX binding | CC(C)C[C@]1(CCO)C[C@H](CN=[N+]=[N-])ON1Cc1ccc(O)cc1 (racemic) [isoxazolidine 4] | little activity | no measurable toxicity
